Legend:
[1] = test system: mice with cyclophosphamide-induced alopecia areata; assay: Hair length (vernier caliper) and hair weight (balance) after the final administration; assay type: in vivo; conditions: gavage once daily, after final administration (Day 28); for Hair length: CP-induced alopecia areata mice; for Hair weight: regrown hair of depilated area
Method: (§1) 60 male C57/BL-6 mice aged 6-8 weeks were evenly divided into 6 groups with 10 mice per group. These groups were: a control group, a model group, a CE (15 mg/kg) group, a CE (30 mg/kg) group, a BT (1 mg/kg) group, and a CE+BT (15+0.5 mg/kg) group. After 1 week of normal feeding, the dorsal hair of the mice was shaved using a depilatory device to prepare the skin (2×3 cm^2). Then, depilatory cream was applied to the prepared skin area to ensure complete removal of the hair on the back of the mice. From the day after depilation, each group of mice was administered once daily by gavage.
(§2) On Day 9 of administration in the aforementioned experiment, cyclophosphamide (abbreviated as CP) was intraperitoneally injected to each mouse in the model group (not administered with CE and/or BT), the CE (15 mg/kg) group, the CE (30 mg/kg) group, the BT (1 mg/kg) group, and the CE+BT (15+0.5 mg/kg) group to establish the AA model. The method for establishing the model is described in the literature: "Effect of CeO2 Nanoenzyme on Hair Growth of Mice with Cyclophosphamide-Induced Alopecia Areata", PENG Xinxin et al., J Shanxi Med Univ, Feb. 2024, Vol. 55, No. 2, p.192.
After the final administration (on Day 28), the length of dorsal hair of the mice in each group was measured using a vernier caliper. Subsequently, the regrown hair in the original depilated area was removed using a depilatory device, and was weighed using a balance. Table 2 Effects of CE, BT and CE+BT on hair length and hair weight in the mice with cyclophosphamide-induced alopecia areata

C57/BL-6 mice = assay: Hair growth of depilated mice after 9 days of gavage administration (dorsal images, hair score by IMAGE J); assay type: in vivo; conditions: first 9 days after depilation
Method: as §1
The substances to be administered were prepared as follows: The aqueous solution of 0.5% sodium carboxymethylcellulose: First, 0.5 g of sodium carboxymethylcellulose powder was added to 100 mL of distilled water, and then the mixture was placed in a water bath and heated at 60-70 °C. […]
Images of the dorsal region of the mice were captured at key time points of hair growth (i.e. Day 0 and Day 9), respectively. In addition, the gray values in the depilated areas on the dorsal region of the mice in Figure a were analyzed using IMAGE J software (National Institutes of Health, USA) to obtain hair scores. In Figure b, the hair scores represent the quantified gray values of the hair on the back skin of the mice.

[2] = test system: mice with cyclophosphamide-induced alopecia areata; assay: Preventive effect on hair loss in cyclophosphamide-induced alopecia areata (dorsal images); assay type: in vivo; conditions: gavage, Day 7 after CP injection, versus model group
Method: as §2
Whether the model has been successfully established was determined by observing the hair loss in each group of mice, wherein the onset of hair loss indicated the successful model establishment.
Images of the dorsal region of the mice were captured on Day 9 of administration (Day 0 after CP injection), Day 14 (Day 5after CP injection), and Day 16 (Day 7 after CP injection). In Figure 2, gavage administration was used for administering CE and/or BT to the mice in the CE (15 mg/kg) group, the CE (30 mg/kg) group, the BT (1 mg/kg) group, and the CE+BT (15+0.5 mg/kg) group; and intraperitoneal injection was used for administering CP to the mice in the model group, the CE (15 mg/kg) group, the CE (30 mg/kg) group, the BT (1 mg/kg) group, and the CE+BT (15+0.5 mg/kg) group. […]

[3] = test system: JAK3/STAT3 signaling pathway; assay: Western blotting of p-JAK3/JAK3 and p-STAT3/STAT3 in mouse skin tissue; assay type: in vivo, mice; conditions: Western blot gray values, versus model group
Method: The expression levels of p-JAK3/JAK3 and p-STAT3/STAT3 proteins were detected by Western blotting using the half of the skin samples that were stored in the freezer at -80°C as described in Example 2. • p-JAK3: purchased from Absin, Cat No.: abs139988; • JAK3: purchased from Absin, Cat No.: abs115170; • p-STAT3: purchased from Absin, Cat No.: abs130919; • STAT3: purchased from Absin, Cat No.: abs155916.
The mouse skin samples stored at -80°C were taken out. 50 mg of skin tissue was cut with surgical scissors from each sample and respectively placed into 2 mL EP tubes. 500 µL of RIPA lysis buffer (available from Servicebio, Cat No.: G2002-100ML) (containing 5µL of protease inhibitor PMSF, available from Servicebio, Cat No.: G2008-1ML) was added to each EP tube. The skin was then disrupted by a cell grinding rod that is inserted into the 2 mL EP tube. […]
The total protein concentration in the supernatant was determined using a BCA kit (G2026-200T, Servicebio) following the protocol in the instruction manual. […]
The previously prepared resolving gel and stacking gel were clamped onto the main body of the gel-casting apparatus, with the stacking gel on the top and the resolving gel on the bottom. […] The gel casting apparatus was then disassembled and placed in the transfer buffer (Cat No.: G2028-1L, available from Servicebio) to be ready for subsequent membrane transfer procedure. […]

## CCS(=O)(=O)N1CC(CC#N)(n2cc(-c3ncnc4[nH]ccc34)cn2)C1 [BT, baricitinib]
[1]; BT 1 mg/kg
  Hair length: 6.51±0.61 mm
  Hair weight: 38.62 ± 6.02 mg

## C[C@@H]1CC[C@H]2C(C)(C)[C@H]3C[C@@]12CC[C@@]3(C)O [CE, cedrol]
[1]; CE 15 mg/kg
  Hair length: 5.98±1.22 mm
  Hair weight: 35.38 ± 6.88 mg
[1]; CE 30 mg/kg
  Hair length: 6.78±1.32 mm
  Hair weight: 43.51 ± 6.45 mg
C57/BL-6 mice; CE 15 mg/kg
  hair growth: significant hair growth
C57/BL-6 mice; CE 30 mg/kg
  hair growth: significant hair growth
[2]; CE 15 mg/kg
  hair loss: significantly better than that of the model group
[2]; CE 30 mg/kg
  hair loss: significantly better than that of the model group
[3]; CE 15 mg/kg
  relative viabilities of p-JAK3/JAK3 and p-STAT3/STAT3: significantly different from that in the model group
[3]; CE 30 mg/kg
  relative viabilities of p-JAK3/JAK3 and p-STAT3/STAT3: significantly different from that in the model group
